Measurements from patent publication US20220387358A1, “CERAMIDE ANALOG SACLAC MODULATES SPHINGOLIPID LEVELS AND MCL-1 SPLICING TO INDUCE APOPTOSIS IN ACUTE MYELOID LEUKEMIA” (University of Virginia Patent Foundation, priority 2019, published 2022).

Key:
[1] = tested on: PBMCs from healthy donors; assay: Cell viability of normal samples ([…]-GLO); format: cell-based; settings: Homo sapiens, PBMC; PBMCs (n=6); 24 hours
From the text: (§1) Healthy donor samples: PBMCs from healthy donors were enriched using the Ficoll-Paque gradient separation method. CD34+PBMCs mobilized with G-CSF were obtained from the University of Virginia Health System Blood Bank (Charlottesville, Va., United States of America). CD34+ cells were isolated from PBMCs with a Human CD34 MicroBead Kit (#130-046, Miltenyi Biotec, Bergisch Gladbach, Germany) using the autoMACS Pro Separator (#130-092-545, Miltenyi Biotec, Bergisch Gladbach, Germany). For cell viability, cell lines were plated at 2.5×10^4 cells per well in a 96-well plate and treated with […] or DMSO vehicle (0.4% of total volume) for the indicated time points and doses. […] Conversion of MTS to formazan product was measured by absorbance at 490 nm using a BioTek Cytation 3 plate reader (BioTeck, Winooski, Vt., United States of America). Absorbance was normalized to DMSO control, which was defined as 100% viability. […] After 15 minutes, luminescence was read on a BioTek Cytation 3 plate reader (BioTek, Winooski, Vt., United States of America). Absorbance was normalized to DMSO control, which was defined as 100% viability.

normal CD34+ cells = assay: Cell viability of normal samples ([…]-GLO); format: cell-based; settings: Homo sapiens; CD34+ (n=4); 24 hours
From the text: as §1

KG1a cells = assay: Rescue from SACLAC-induced apoptosis by Mcl-1S knockdown; format: cell-based, human; settings: 10 μM SACLAC 48 hours; siRNA (100 nM) targeting MCL-1S vs scrambled
Method: Apoptosis in cell lines was assessed after treating 2.5×10^5 cells per ml with drug or vehicle in a 48-well plate for the indicated time points and doses. Primary human AML cells were pre-incubated with SFEM for 48 hours before plating 2×10^5 cells in 24-well plates for the indicated times point and doses. Samples were stained using the Muse Annexin V & Dead Cell Kit (Millipore #MCH100105). Change in mitochondrial membrane potential in cell lines was measured with the Muse® MitoPotential Kit (#MCH100110, MilliporeSigma, Burlington, Mass., United States of America). Caspase activation was measured using the Muse® Caspase 3/7 Assay Kit (#MCH100108, MilliporeSigma, Burlington, Mass., United States of America). For rescue experiments, cells were plated at 2.5×10^4 well in a 96-well plate 24 hours after electroporation. Cells were treated with DMSO or SACLAC for 48 hours and apoptosis was detected as stated above. All kits were used according to manufacturer's protocol. Cells were then analyzed using the Muse® Cell Analyzer (MilliporeSigma, Burlington, Massachusetts, United States of America) (35,36). Experiments included positive and negative controls for proper analysis. […]

[2] = tested on: primary AML patient samples; assay: Apoptosis by flow cytometry (Annexin V); format: cell-based, human; settings: seven patient samples; 48-hour treatment
Method: Apoptosis in cell lines was assessed after treating 2.5×10^5 cells per ml with drug or vehicle in a 48-well plate for the indicated time points and doses. Primary human AML cells were pre-incubated with SFEM for 48 hours before plating 2×10^5 cells in 24-well plates for the indicated times point and doses. Samples were stained using the Muse Annexin V & Dead Cell Kit (Millipore #MCH100105). Change in mitochondrial membrane potential in cell lines was measured with the Muse® MitoPotential Kit (#MCH100110, MilliporeSigma, Burlington, Mass., United States of America). Caspase activation was measured using the Muse® Caspase 3/7 Assay Kit (#MCH100108, MilliporeSigma, Burlington, Mass., United States of America). For rescue experiments, cells were plated at 2.5×10^4 well in a 96-well plate 24 hours after electroporation. Cells were treated with DMSO or […] for 48 hours and apoptosis was detected as stated above. All kits were used according to manufacturer's protocol. Cells were then analyzed using the Muse® Cell Analyzer (MilliporeSigma, Burlington, Massachusetts, United States of America) (35,36). Experiments included positive and negative controls for proper analysis.

[3] = tested on: primary AML patient samples; assay: Colony forming assay; format: cell-based, human; settings: six primary patient samples
Method: Cryopreserved human AML patient samples were thawed and washed twice with RPMI 1640 supplemented with 2% heat inactivated fetal bovine serum (FBS). After washes, cells were cultured in triplicate in 12-well plates at a density of 0.1 to 2×10^5 cells per well in Human Methylcellulose Complete Media (#HSC003R&D Systems, Minneapolis, Minnesota, United States of America). Plating densities were selected for each case to yield colony outgrowth of 20-100 colonies per well. The desired cell number and dose of SACLAC or DMSO was added to the culture media and dispensed to multi-well plates. Colonies were propagated for 10-14 days and blast colonies (>20 cells) were counted in a blinded manner under the light microscope.

CCCCCCCCCCCCCCC[C@@H](O)[C@H](CO)NC(=O)CCl [SACLAC, N-[(2S,3R)-1,3-dihydroxyoctadecan-2-yl]2-chloroacetamide]
EC50 [1]: 7.4 µM | EC50 (normal CD34+ cells): 4 µM | apoptosis induction reduced by, in Mcl-1S knockdown cells (KG1a cells): 36% | apoptosis reached by more than half the samples [2]: ≥ 80% | colony formation decreased (average) ([3]; 5 μM): 32% | colony formation decreased (average) ([3]; 20 μM): 69%
